Holding throughout (experiment): growth of human tumour cells (NCI), 48 h
Assay [1] relates to BT-549 breast.
The test system of assay [2] is HOP-62 NSCLC.
For assay [3], the system named is HOP-92 NSCLC.
The test system of assay [4] is NCI-H226 lung.
The subject of assay [5] is NCI-H23 lung.
For assay [6], the system named is OVCAR-3 ovarian.
The subject of assay [7] is PC-3 prostate.
Assay [8] deals with SF-539 CNS.
For assay [9], the system named is SK-MEL-2 melanoma.
Assay [10] has as its system SK-OV-3 ovarian.

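Tested at 5 concentrations; 48 h exposure; 96-well plates; endpoints linearly interpolated, else capped at highest concentration. GI50: concentration for 50% inhibition of growth. At the TGI there is no net growth.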 Where only a bound is given, the exact number is not on record here.

Regarding `COc1cc2c(cc1OCCCCCN1CCN(c3ncnc4ccccc34)CC1)N=CC1CCCN1C2=O` (stereo not given), the GI50 was 0.0229 µM in assay [1]; 0.0257 µM in assay [2]; 0.0224 µM in assay [3]; 0.0203 µM in [4]; 0.0342 µM in assay [5]; 0.0223 µM in assay [6]. The GI50 is 0.0218 µM in assay [7], 0.0268 µM in assay [8], 0.0425 µM in assay [9] and 0.0334 µM in [10]. Further, the TGI came to 0.0628 µM in [1]; 0.358 µM in [2]; 0.069 µM in assay [3]; 0.0479 µM in assay [4]; 0.196 µM in assay [5]; 0.0512 µM in [6]. The TGI is 0.154 µM in assay [7], 0.0685 µM in assay [8], 0.709 µM in assay [9] and 0.379 µM in [10].
As to `CC1=C(C#N)c2nc3ccccc3n2C(=O)C1(C)CCO` (stereo not given), the TGI in assay [1], in assay [2], in assay [3], in assay [4], in assay [5] and in assay [6] was above 100 µM in each case. Also, the TGI in assay [7], in [8], in assay [9] and in [10] was above 100 µM in each case.
As for `Clc1ccc(C=NC23CC4CC(CC(C4)C2)C3)c(Cl)c1`, the TGI in assay [1], in [2], in assay [3], in assay [4], in assay [5] and in [6] was above 10 µM in each case. Further, the TGI in [7], in [8], in assay [9] and in [10] was above 10 µM throughout.
Turning to `O=[N+]([O-])c1cc2oc(CSc3ccccc3)nc2cc1Cl`, the TGI in [1] was 80.8 µM; in assay [2] it was above 100 µM; in assay [3], above 100 µM; in assay [4] it was 91.1 µM; in [5] it was 88.6 µM; in [6] it was 73.9 µM. The TGI in assay [7] was above 100 µM; in assay [8] it was above 100 µM; in [9], 51.4 µM; in assay [10], 78.7 µM.
Turning to `COc1cc2c(cc1OCCCN1C(=O)c3cccc4cccc(c34)C1=O)N=C[C@@H]1CCCN1C2=O`, the TGI is above 100 µM in [1]; above 100 µM in [2]; above 58.2 µM in assay [3]; above 100 µM in [4]; above 100 µM in assay [5]; above 85.1 µM in assay [6]. Also, the TGI in [7], in assay [8], in assay [9] and in [10] was above 100 µM throughout.
`Cc1ccc2c(c1)c1ccc3c(c1n2C)C(=O)C=CC3=O`: the TGI in [1] was 2.83 µM; in [2], above 10 µM; in assay [3], 3.92 µM; in assay [4], above 10 µM; in assay [5], 5.82 µM; in assay [6] it was 4.53 µM. Moreover, the TGI in assay [7] was above 9.27 µM; in assay [8], 4.93 µM; in assay [9] it was above 10 µM; in assay [10], above 10 µM.
As to `O=C(CCSC1=NCCCN1)c1ccc(F)cc1`, the TGI in assay [1] is 35.7 µM; in assay [2], above 68.9 µM; in assay [3] it was 40.6 µM; in assay [4], 41.9 µM; in assay [5] it was 43.4 µM; in assay [6] it was above 68.2 µM. Besides, the TGI in assay [7] was determined as 31 µM; in [8], 35.9 µM; in [9], 36.5 µM; in assay [10], 43.5 µM.
Take `CCOC(=O)c1c2cccccc-2nc1Nc1cccc2c(C)ccnc12`: the TGI in assay [1], in [2], in [3], in assay [4], in assay [5] and in assay [6] was above 10 µM in each case. The TGI in assay [7], in assay [8], in assay [9] and in assay [10] was above 10 µM throughout.
Turning to `COc1cc(Nc2ccc3c(c2)CCC3)nc(OC)n1`, the TGI in assay [1], in assay [2], in assay [3], in assay [4], in assay [5] and in assay [6] was above 100 µM each time. For the same molecule, the TGI in [7], in assay [8], in assay [9] and in assay [10] was above 100 µM each time.
With `CO/N=C(/C(=O)OC)c1ccccc1COc1ccccc1C(F)(F)F`, the TGI in [1], in assay [2], in assay [3], in assay [4], in [5] and in [6] was above 100 µM in each case. The TGI in assay [7] was above 100 µM; in assay [8] it was 59.2 µM; in assay [9], 73.2 µM; in assay [10] it was 91.8 µM.
With `COc1ccc(C(=O)NCCN(C)C)c2nc3ccccc3cc12`, the TGI in [1] amounted to 14.4 µM; in assay [2], 2.72 µM; in [3], 8.05 µM; in [4] it was 3.26 µM; in assay [5], 2.2 µM; in assay [6], 9.93 µM. The TGI in assay [7] was determined as 4.82 µM; in assay [8] it was 8.16 µM; in assay [9] it was 7.46 µM; in assay [10] it was 8.69 µM.
Turning to `CC(C)(C)OC(=O)NC(CSSCC(NC(=O)OC(C)(C)C)C(=O)O)C(=O)O` (stereo not given), the TGI in [1], in assay [2], in assay [3], in [4], in assay [5] and in assay [6] was above 100 µM each time. Also, the TGI in assay [7], in assay [8], in assay [9] and in assay [10] was above 100 µM throughout.
With `CCOC(=O)CC/C(=N/Nc1ccc(Cl)cc1[N+](=O)[O-])C(=O)OCC`, the TGI in assay [1], in assay [2], in [3], in assay [4], in assay [5] and in assay [6] was above 100 µM in each case. In addition, the TGI in [7], in [8], in [9] and in assay [10] was above 100 µM in each case.
Consider `CC(C)N1CCN(c2ccc(OCC3COC(Cn4cncn4)(c4ccc(Cl)cc4Cl)O3)cc2)CC1` (stereo not given), for which the TGI in assay [1] was 30 µM; in assay [2] it was 28.5 µM; in assay [3], 30.8 µM; in assay [4], 30.1 µM; in [5], 30.9 µM; in [6], 31 µM. Moreover, the TGI was 35.1 µM in assay [7], 27.3 µM in assay [8], 30.5 µM in [9] and 28.9 µM in assay [10].
For the molecule `CCN(C(=O)N[C@@H](C)C(=O)N[C@@H](Cc1ccccc1)C(=O)OC)c1ccccc1`, the TGI is above 100 µM in assay [1]; above 100 µM in assay [2]; 68 µM in [3]; above 100 µM in [4]; above 100 µM in assay [5]; above 100 µM in [6]. For the same molecule, the TGI in assay [7], in [8], in [9] and in assay [10] was above 100 µM in each case.
Take `C=C1C(=O)[C@@]23CC[C@@H]4[C@@]5(C)CCC[C@@]4(OC5=O)[C@@]2(C)CC[C@@H]1C3`: the TGI is 3.24 µM in assay [1]; above 23.7 µM in [2]; 57.7 µM in [3]; 9.15 µM in assay [4]; 4.49 µM in assay [5]; 3.95 µM in [6]. Moreover, the TGI in assay [7] stood at 5.31 µM; in assay [8], 6.3 µM; in [9] it was 8.12 µM; in assay [10], 23.3 µM.
Turning to `O=C1/C(=C/c2ccc(Cl)cc2)CCCc2ccccc21`, the TGI in assay [1] came to 47.3 µM; in [2], 57.7 µM; in [3], 57.3 µM; in [4] it was 35.9 µM; in assay [5], 60.5 µM; in [6], 39.4 µM. The TGI turned out to be 53.1 µM in assay [7], 31.8 µM in assay [8], 27.8 µM in [9] and 96.5 µM in [10].
For `CCCCOCCOC1=C(Cl)C(=O)c2c(O)ccc(O)c2C1=O`, the TGI was determined as 0.341 µM in assay [1]; 2.49 µM in assay [2]; 0.657 µM in assay [3]; 4.63 µM in assay [4]; 1.02 µM in assay [5]; 1.63 µM in [6]. Further, the TGI in [7] turned out to be 3.08 µM; in assay [8], 2.44 µM; in assay [9], 2.78 µM; in assay [10], 6.65 µM.
Turning to `C=CCn1c(=O)ccn(/C(=C/C(=O)OCC)C(=O)OCC)c1=O`, the TGI in [1] was 29.3 µM; in assay [2], 44.4 µM; in assay [3], 9.15 µM; in [4] it was above 31.6 µM; in assay [5] it was 36.4 µM; in [6], 18.2 µM. In addition, the TGI was 27.9 µM in [7], 49.5 µM in [8], 34.3 µM in assay [9] and 74.3 µM in assay [10].
For the molecule `O=C(O)c1cccc(S(=O)(=O)NN2C(=O)CSC2c2ccc(Cl)cc2Cl)c1` (stereo not given), the TGI in [1], in [2], in assay [3], in [4], in assay [5] and in [6] was above 100 µM each time. Further, the TGI is above 100 µM in assay [7], 40 µM in [8], above 100 µM in [9] and above 100 µM in [10].
With `COC(=O)c1ccccc1CC1Cc2cccc(C)c2C1=O` (stereo not given), the TGI in assay [1] was above 100 µM; in assay [2], above 100 µM; in assay [3], 80.6 µM; in assay [4], 71.5 µM; in [5], above 100 µM; in [6], above 100 µM. The TGI in [7] is 77.8 µM; in assay [8] it was above 100 µM; in [9], 53.2 µM; in assay [10] it was above 100 µM.
As to `O=C(CC(=O)Nc1ccccc1)NNC(Sc1ccccc1)c1cc(N=Nc2ccc(Br)cc2)ccc1O` (stereo not given), the TGI in assay [1] is above 10 µM; in [2], above 10 µM; in assay [3], above 10 µM; in assay [4] it was 5.04 µM; in assay [5] it was above 10 µM; in assay [6], above 10 µM. For the same molecule, the TGI is above 10 µM in [7], 7.91 µM in assay [8], above 10 µM in assay [9] and above 10 µM in [10].
